Laboratory results published in publication PMC8977229 (Journal of molecular biology, 2022).

Molecular target: T1, FraR (Salmonella enterica, UniProt Q8ZLC9)
T1 sequence (Q8ZLC9 1-239): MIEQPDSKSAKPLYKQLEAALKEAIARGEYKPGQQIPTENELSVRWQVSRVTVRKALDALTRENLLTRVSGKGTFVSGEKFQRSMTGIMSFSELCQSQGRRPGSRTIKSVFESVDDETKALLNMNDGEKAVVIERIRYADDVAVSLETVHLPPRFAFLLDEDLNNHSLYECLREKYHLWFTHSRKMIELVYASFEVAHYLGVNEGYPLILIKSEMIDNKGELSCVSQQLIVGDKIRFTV
Assay: online buffer exchange native MS titration
Type: binding

`O=C(O)C[C@H](NCC(=O)[C@@H](O)[C@H](O)[C@H](O)COP(=O)(O)O)C(=O)O` [6-P-F-Asp, 6-phosphofructose-aspartate] was tested, and the Kd was 3.8 ± 0.6 µM.
